# Patent publication US4335249A, “Herbicidal diphenyl ethers, sulfides, sulfoxides and sulfones” (Rohm and Haas Company, priority 1976, dated 1982)
# Key:
# Assay type in all cases: in vivo
# [1] = test system: downybrome (Bromus tectorum); test: Preemergence herbicidal activity, downybrome; conditions: Bromus tectorum, pre-emergence, 336 h, Pre, 2 lb/A
# Procedure, shortened: (§1)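 Plants were scored as mean % killed about two weeks after treatment. Postemergence species were sprayed two weeks after germination and preemergence species immediately after sowing. The spray was an acetone/water solution at the stated lb/A rate in a 50 gal/acre carrier.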
# marigold (Tagetes spp.) [2] = test: Postemergence herbicidal activity, marigold; conditions: post-emergence, 336 h, 2 lb/A
# Procedure, shortened: as §1
# [3] = test system: barnyardgrass (Echinochloa crusgalli); test: Preemergence herbicidal activity, barnyardgrass; conditions: Echinochloa crus-galli, pre-emergence, 336 h; Pre, 2 lb/A
# Procedure, shortened: (§2)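 Seeds were sown in soil flats and sprayed either immediately after planting (preemergence) or two weeks after germination (postemergence). The test compound was dissolved in acetone, diluted with water and applied at a carrier volume equivalent to 50 gallons per acre, dosed in pounds per acre (lb/A).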
# wild oats (Avena fatua) [4] = test: Preemergence herbicidal activity, wild oats; conditions: Avena fatua, pre-emergence, 336 h, Pre, 2 lb/A; read-out: % control, Wild oat
# Procedure, shortened: as §1
# marigold (Tagetes spp.) [5] = test: Preemergence herbicidal activity, marigold; conditions: pre-emergence, 336 h, 2 lb/A
# Procedure, shortened: as §1
# [6] = test system: morningglory (Ipomoca spp.); test: Preemergence herbicidal activity, morningglory; conditions: Ipomoea, pre-emergence, 336 h, 2 lb/A
# Procedure, shortened: as §1
# foxtail (Setaria spp.) [7] = test: Postemergence herbicidal activity, foxtail; conditions: Setaria, post-emergence, 336 h, Post, 2 lb/A
# Procedure, shortened: as §1
# [8] = test system: yellow nutsedge (Cyperus esculentus); test: Preemergence herbicidal activity, yellow nutsedge; conditions: Cyperus, pre-emergence, 336 h, 2 lb/A
# Procedure, shortened: as §1
# wild oats (Avena fatua) [9] = test: Postemergence herbicidal activity, wild oats; conditions: Avena fatua, post-emergence, 336 h, Post, 2 lb/A; read-out: % control, Wild oat
# Procedure, shortened: as §1
# [10] = test system: tomato (Lycopersicon esculentum); test: Postemergence herbicidal activity, tomato; conditions: Solanum lycopersicum, post-emergence, 336 h, Post, 2 lb/A
# Procedure, shortened: as §1
# [11] = test system: yellow nutsedge (Cyperus esculentus); test: Postemergence herbicidal activity, yellow nutsedge; conditions: Cyperus, post-emergence, 336 h, 2 lb/A
# Procedure, shortened: as §1
# [12] = test system: velvetleaf (Abutilon theophrasti); test: Postemergence herbicidal activity, velvetleaf; conditions: Abutilon theophrasti, post-emergence, 336 h, 2 lb/A
# Procedure, shortened: as §2
# foxtail (Setaria spp.) [13] = test: Preemergence herbicidal activity, foxtail; conditions: Setaria, pre-emergence, 336 h; Pre, 2 lb/A
# Procedure, shortened: as §1
# [14] = test system: cocklebur (Xanthium pensylvanicum); test: Preemergence herbicidal activity, cocklebur; conditions: Xanthium strumarium, pre-emergence, 336 h, 2 lb/A
# Procedure, shortened: as §1
# [15] = test system: cocklebur (Xanthium pensylvanicum); test: Postemergence herbicidal activity, cocklebur; conditions: Xanthium strumarium, post-emergence, 336 h, 2 lb/A
# Procedure, shortened: as §1
# [16] = test system: tomato (Lycopersicon esculentum); test: Preemergence herbicidal activity, tomato; conditions: Solanum lycopersicum, pre-emergence, 336 h; Pre, 2 lb/A
# Procedure, shortened: as §1
# [17] = test system: downybrome (Bromus tectorum); test: Postemergence herbicidal activity, downybrome; conditions: Bromus tectorum, post-emergence, 336 h, Post, 2 lb/A
# Procedure, shortened: as §1
# [18] = test system: barnyardgrass (Echinochloa crusgalli); test: Postemergence herbicidal activity, barnyardgrass; conditions: Echinochloa crus-galli, post-emergence, 336 h; Post, 2 lb/A
# Procedure, shortened: as §2
# [19] = test system: morningglory (Ipomoca spp.); test: Postemergence herbicidal activity, morningglory; conditions: Ipomoea, post-emergence, 336 h, 2 lb/A
# Procedure, shortened: as §1
# [20] = test system: velvetleaf (Abutilon theophrasti); test: Preemergence herbicidal activity, velvetleaf; conditions: Abutilon theophrasti, pre-emergence, 336 h; Pre, 2 lb/A
# Procedure, shortened: as §1
SMILES,pest or weed control at 2241.7 g/ha [1] [%],pest or weed control at 2241.7 g/ha (marigold (Tagetes spp.) [2]) [%],pest or weed control at 2241.7 g/ha [3] [%],pest or weed control at 2241.7 g/ha (wild oats (Avena fatua) [4]) [%],pest or weed control at 2241.7 g/ha (marigold (Tagetes spp.) [5]) [%],pest or weed control at 2241.7 g/ha [6] [%],pest or weed control at 2241.7 g/ha (foxtail (Setaria spp.) [7]) [%],pest or weed control at 2241.7 g/ha [8] [%],pest or weed control at 2241.7 g/ha (wild oats (Avena fatua) [9]) [%],pest or weed control at 2241.7 g/ha [10] [%],pest or weed control at 2241.7 g/ha [11] [%],pest or weed control at 2241.7 g/ha [12] [%],pest or weed control at 2241.7 g/ha (foxtail (Setaria spp.) [13]) [%],pest or weed control at 2241.7 g/ha [14] [%],pest or weed control at 2241.7 g/ha [15] [%],pest or weed control at 2241.7 g/ha [16] [%],pest or weed control at 2241.7 g/ha [17] [%],pest or weed control at 2241.7 g/ha [18] [%],pest or weed control at 2241.7 g/ha [19] [%],pest or weed control at 2241.7 g/ha [20] [%]
"CC(C#N)Oc1ccc(Oc2ccc(C(F)(F)F)cc2Cl)cc1 (centres unmarked) [Example 19, 2-[4-(2-chloro-4-trifluoromethylphenoxy)phenoxy] propionitrile]",20,0,100,30,0,0,99,0,90,0,0,0,100,0,0,0,30,99,0,0
CCOC(=O)COc1ccc(Oc2ccc(C(F)(F)F)cc2Cl)cc1 [Example 11],0,0,0,0,0,0,30,0,40,0,0,20,30,0,50,0,0,20,30,0
COCCOC(=O)C(C)Oc1ccc(Oc2ccc(C(F)(F)F)cc2Cl)cc1 (centres unmarked) [Example 25],95,30,100,70,0,0,100,30,100,95,40,60,100,0,20,0,80,100,40,0
"CCOC(=O)C(C)Oc1ccc(Oc2ccc(C(F)(F)F)cc2Cl)cc1OC (centres unmarked) [Example 8, Ethyl 2-[4-(2-chloro-4-trifluoromethylphenoxy)-2-methoxyphenoxy] propionate]",0,0,0,0,0,0,0,0,0,0,0,0,99,0,0,0,0,0,0,0
